One data set relates to A17K103N/Y181C. Put plainly: Anti-HIV cytoprotection assay, drug resistant A17. The data set is classed as cell-based. The settings on record: HIV-1 strain A17K103N/Y181C, CEM-SS cells. As for the experimental part: (§1) Cells were prepared as described above. Virus Preparation—The wild type NL4-3 and drug resistant A17 viruses were obtained from the NIH AIDS Research and Reference Reagent Program and stock virus pools were produced in CEM-SS cells. Amino acid substitutes of L100I, Y181C and P23L were introduced by site-directed mutagenesis into pN L4-3 and stock virus pools were produced in CEM-SS cells. A pretitered aliquot of virus was removed from the freezer (−80° C.) and allowed to thaw slowly to room temperature in a biological safety cabinet.
(§2) Plate Format—Each plate contains cell control wells (cells only), virus control wells (cells plus virus), drug toxicity wells (cells plus drug only), drug colorimetric control wells (drug only) as well as experimental wells (drug plus cells plus virus). Samples were tested in triplicate with eleven half-log dilutions per compound. Efficacy and Toxicity XTT—Following incubation at 37° C. in a 5% CO2 incubator, the test plates were stained with the tetrazolium dye XTT (2,3-bis(2-methoxy-4-nitro-5-sulfophenyl)-5-[(phenylamino)carbonyl]-2H-tetrazolium hydroxide). XTT-tetrazolium was metabolized by the mitochondrial enzymes of metabolically active cells to a soluble formazan product, allowing rapid quantitative analysis of the inhibition of HIV induced cell killing by anti-HIV test substances. XTT solution was prepared daily as a stock of 1 mg/mL in RPMI1640. Phenazine methosulfate (PMS) solution was prepared at 0.15 mg/mL in PBS and stored in the dark at −20° C. XTTIPMS stock was prepared immediately before use by adding 40 μL of PMS per ml of XTT solution. Fifty microliters of XTT/PMS was added to each well of the plate and the plate was re-incubated for 4 hours at 37° C. Plates were sealed with adhesive plate sealers and shaken gently or inverted several times to mix the soluble formazan product and the plate was read spectrophotometrically at 450/650 nm with a Molecular Devices Vmax plate reader.
(§3) Data Analysis—Raw data was collected from the Softmax Pro 4.6 software and imported into a Excel XLFit4 spreadsheet for analysis by four parameter curve fit calculations. Both antiviral activity and toxicity are calculated.

For data set [1], the system named is CEM-SS cells. The data set is described as follows: Toxicity XTT in CEM-SS cells (cytoprotection assay). The data set is classed as cell-based. To be noted: XTT; read-out: CEM-SS TC50. Put shortly:
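CEM-SS cells in exponential growth (>95% viable) were plated with compound alone, as eleven half-log dilutions in triplicate, at 37 °C and 5% CO2. Viability was measured by XTT/PMS metabolism over 4 h, read at 450/650 nm. Toxicity was derived by four-parameter curve fitting.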
(In general: Tetrazolium assays rely on reduction of a dye to a coloured formazan, in cell work by metabolically active cells.)

The subject of another data set is Caco-2 monolayers. The data set is described as follows: in vitro. The settings on record: for Recovery (%) A→B / Recovery (%) B→A / Average Papp, A→B / Average Papp, B→A: 2 hours; for Average Papp, A→B / Average Papp, B→A: pH 7.4. The data set is classed as in vitro ADME. Put shortly:
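Permeability across Caco-2 monolayers in 12-well Transwell inserts (1.13 cm² area), run in duplicate. Calculation uses receiver and donor volumes, nominal dosing concentration, final receiver and donor concentrations, and the mean of nominal and measured 120 min donor concentrations.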

A further data set has as its system NL4-3. Put plainly: Anti-HIV cytoprotection assay, wild type NL4-3. The data set is classed as cell-based, HIV-1. The settings on record: for TI: HIV-1 strain NL4-3. As for the experimental part:
as §1, §2, §3

Data set [2] concerns CEM-SS cells. The data set is described as follows: Toxicity XTT in CEM-SS cells (drug resistant strain assay). To be noted: read-out: TC50 (the source's name). The data set is classed as cell-based. The protocol:
as §1, with “cabinet. Virus was re-suspended and diluted into tissue culture medium such that the amount of virus added to each well in a volume of 50 μL was the amount determined to yield 85 to 95% cell killing at 6 days post-infection.” for “cabinet.”
as §2, §3

Test in data set [3]: as above
The data set is classed as cell-based. The settings on record: human, CEM-SS cells, read-out: TC50 (the source's name). As for the experimental part: as §1, with “cabinet. Virus was re-suspended and diluted into tissue culture medium such that the amount of virus added to each well in a volume of 50 μL was the amount determined to yield 85 to 95% cell killing at 6 days post-infection.” for “cabinet.”
as §2, §3

[4] abbreviates: run with HIV-1 strain A17K103N/Y181C.
The mark [5] stands for this setting: run with HIV-1 strain NL4-3L100I.
Where [6] appears, read: run with HIV-1 strain NL4-3P236L.
Where [7] appears, read: run with HIV-1 strain NL4-3Y181C.
[8] abbreviates: Human immunodeficiency virus 1, CEM-SS.
Where [9] appears, read: Human immunodeficiency virus 1, NL43, CEM-SS.

These results are taken from patent publication US9421204B2, “Oligomer modified diaromatic substituted compounds” (priority 2010, dated 2016).

What is called EC50 is the midpoint of the concentration-response curve.

Read-outs that look alike come from different tables or passages of the source. A value given as a limit tells only on which side of the number the result lay.

For the molecule “5-O-mPEG9-Delavirdine [mPEG9-O-Delavirdine]”, the EC50 with A17K103N/Y181C (read-out: EC50) is over 5 µM; with NL4-3 (HIV-1 strain NL4-3, CEM-SS cells, read-out: EC50), 0.89 µM. For the same molecule, the CC50 in the data set on CEM-SS cells [1] was 40.7 µM; in the data set with CEM-SS cells [2] (setting [4]), over 5 µM; in the data set with CEM-SS cells [2] (run with HIV-1 strain NL4-3), over 5 µM; in the data set on CEM-SS cells [2] (setting [5]), over 5 µM; in the data set with CEM-SS cells [2] (setting [6]), over 5 µM; with CEM-SS cells [2] (setting [7]), over 5 µM. For the same molecule, the “Efflux Ratio (B→A/A→B)” value was found to be 12 in the data set with Caco-2 monolayers (Test 1) and 7.1 in the data set with Caco-2 monolayers (Test 2). Also, the “Recovery (%) A→B” value in the data set on Caco-2 monolayers (Test 1, 10 μM) came to 66%; with Caco-2 monolayers (Test 2, 10 μM), 93%. In addition, the “Recovery (%) B→A” value is given as 72% with Caco-2 monolayers (Test 1, 10 μM) and 94% in the data set on Caco-2 monolayers (Test 2, 10 μM). Also, the “Average Papp, A→B” value was 2.22 ×10⁻⁶ cm/s in the data set with Caco-2 monolayers (Test 1, 10 μM) and 5.27 ×10⁻⁶ cm/s in the data set with Caco-2 monolayers (Test 2, 10 μM). Besides, the “Average Papp, B→A” value in the data set on Caco-2 monolayers (Test 1, 10 μM) was 27.7 ×10⁻⁶ cm/s; with Caco-2 monolayers (Test 2, 10 μM), 37.3 ×10⁻⁶ cm/s. The same molecule displayed a TI in the data set with NL4-3 of over 5.6.
Consider `COCCNc1ccc2[nH]c(C(=O)N3CCN(c4ncccc4NC(C)C)CC3)cc2c1` [5-mPEG1-NH-Delavirdine, 5-mPEG-NH-Delavirdine], for which the concentration for a half-maximal effect (EC50) was over 1 µM in the data set on A17K103N/Y181C (setting [8]) and 0.02 µM in the data set with NL4-3 (setting [9]). In the data set on NL4-3, this molecule displayed a TI of over 50.0. The CC50 in data set [3] (setting [4]), in data set [3] (run with HIV-1 strain NL4-3), in data set [3] (setting [5]), in data set [3] (setting [6]) and in data set [3] (setting [7]) was over 1 µM in each case.
As to `COCCOCCNc1ccc2[nH]c(C(=O)N3CCN(c4ncccc4NC(C)C)CC3)cc2c1` [5-mPEG2-NH-Delavirdine], the EC50 with A17K103N/Y181C (setting [8]) was over 1 µM; with NL4-3 (setting [9]), 0.08 µM. The TI in the data set on NL4-3 is given as over 12.5. Besides, the CC50 in data set [3] (setting [4]), in data set [3] (run with HIV-1 strain NL4-3), in data set [3] (setting [5]), in data set [3] (setting [6]) and in data set [3] (setting [7]) was over 1 µM in each case.
Consider `COCCOCCOCCOc1ccc2[nH]c(C(=O)N3CCN(c4ncccc4NC(C)C)CC3)cc2c1` [mPEG3-O-Delavirdine, 5-O-mPEG3-Delavirdine], for which the figures for the EC50 in the data set on A17K103N/Y181C (setting [8]) and in the data set on NL4-3 (setting [9]) were over 5 µM and 0.06 µM, respectively. Further, the TI in the data set on NL4-3 is on record as over 83.3. Moreover, the CC50 in data set [3] (setting [4]), in data set [3] (run with HIV-1 strain NL4-3), in data set [3] (setting [5]), in data set [3] (setting [6]) and in data set [3] (setting [7]) was over 5 µM throughout.
In the case of `COCCOCCOCCOCCOc1ccc2[nH]c(C(=O)N3CCN(c4ncccc4NC(C)C)CC3)cc2c1` [mPEG4-O-Delavirdine, 5-O-mPEG4-Delavirdine], the EC50 in the data set on A17K103N/Y181C (setting [8]) is over 5 µM; with NL4-3 (setting [9]) it was 0.87 µM. The molecule also displayed a TI in the data set on NL4-3 of over 5.8. Further, the CC50 in data set [3] (setting [4]), in data set [3] (run with HIV-1 strain NL4-3), in data set [3] (setting [5]), in data set [3] (setting [6]) and in data set [3] (setting [7]) was over 5 µM in each case.
